Reference: ChEMBL document CHEMBL3045685, “Discovery of bis-aromatic ring neonicotinoid analogues fixed as cis-configuration: Synthesis, insecticidal activities, and molecular docking studies” (2010)

Experiments:
Type in all cases: functional
Nilaparvata lugens [1] = test: In vivo insecticidal activity against fifth-instar larval stage of Nilaparvata lugens (brown planthopper) in second semester rice seedlings assessed as insect mortality at 10 mg/L treated for 5 secs before larval infestation measured after 72 hr
Nilaparvata lugens [2] = test: In vivo insecticidal activity against fifth-instar larval stage of Nilaparvata lugens (brown planthopper) in second semester rice seedlings assessed as insect mortality at 500 mg/L treated for 5 secs before larval infestation measured after 72 hr
Nilaparvata lugens [3] = test: In vivo insecticidal activity against fifth-instar larval stage of Nilaparvata lugens (brown planthopper) in second semester rice seedlings assessed as insect mortality at 100 mg/L treated for 5 secs before larval infestation measured after 72 hr

| Structure (SMILES) | mortality at 10 µg/mL (Nilaparvata lugens [1]) | mortality at 500 µg/mL (Nilaparvata lugens [2]) | mortality at 100 µg/mL (Nilaparvata lugens [3]) |
| --- | --- | --- | --- |
| CCN(Cc1ccc(Cl)nc1)C1=C([N+](=O)[O-])CN(c2ccc(F)cc2)CN1C | ≥ 80% | 100% | 100% |
| CCN(Cc1ccc(Cl)nc1)C1=C([N+](=O)[O-])CN(Cc2ccc(OC)cc2)CN1C |  | ≥ 90% | ≥ 50% |
| CCN(Cc1ccc(Cl)nc1)C1=C([N+](=O)[O-])CN(C(C)c2ccccc2)CN1C (single isomer, unassigned; (+)) | ≥ 80% | 100% | 100% |
| CCN(Cc1ccc(Cl)nc1)C1=C([N+](=O)[O-])CN(Cc2ccc(C)cc2)CN1C | ≥ 50% | 100% | ≥ 70% |
| CCN(Cc1ccc(Cl)nc1)C1=C([N+](=O)[O-])CN(c2ccccc2OC)CN1C | ≥ 60% | 100% | 100% |
| CCN(Cc1ccc(Cl)nc1)C1=C([N+](=O)[O-])CN(c2ccccc2)CN1C | ≥ 70% | 100% | ≥ 90% |
| CCOC(=O)CN1CC([N+](=O)[O-])=C(N(CC)Cc2ccc(Cl)nc2)N(C)C1 | ≥ 90% | 100% | 100% |
| CCOC(=O)C(CC(C)C)N1CC([N+](=O)[O-])=C(N(CC)Cc2ccc(Cl)nc2)N(C)C1 (racemic) | < 50% | ≥ 70% | ≥ 50% |
| CCN(Cc1ccc(Cl)nc1)C1=C([N+](=O)[O-])CN(Cc2ccc(Cl)nc2)CN1C | ≥ 80% | 100% | 100% |
| CCN(Cc1ccc(Cl)nc1)C1=C([N+](=O)[O-])CN(C2CCCCC2)CN1C | ≥ 60% | ≥ 90% | ≥ 80% |
| CCOC(=O)C(Cc1ccccc1)N1CC([N+](=O)[O-])=C(N(CC)Cc2ccc(Cl)nc2)N(C)C1 (racemic) | ≥ 60% | ≥ 80% | ≥ 70% |
| CCN(Cc1ccc(Cl)nc1)C1=C([N+](=O)[O-])CN(CCc2ccccc2)CN1C | ≥ 80% | 100% | 100% |
| CCN(Cc1ccc(Cl)nc1)/C(=C/[N+](=O)[O-])NC [NITENPYRAM] | 100% | 100% | 100% |
| CCN(Cc1ccc(Cl)nc1)C1=C([N+](=O)[O-])CN(Cc2ccccc2)CN1C | ≥ 90% | 100% | 100% |
| CCN(Cc1ccc(Cl)nc1)C1=C([N+](=O)[O-])CN(C(C)c2ccc(C)cc2)CN1C (racemic) | ≥ 70% | ≥ 90% | ≥ 80% |
| CCN(Cc1ccc(Cl)nc1)C1=C([N+](=O)[O-])CN(Cc2ccccn2)CN1C | ≥ 70% | 100% | ≥ 80% |
